Experimental findings from patent US20100285959A1, “HERBICIDAL MIXTURES” (priority 2006, published 2010) are described below.

For one data set, the system named is common blackjack (BIDPI). Nature of the data set: Test 11 field trial, preemergence. The data set is classed as in vivo, Bidens pilosa. The arrangement: scale not given here. The conditions noted are these: alone or + atrazine 1500 or metolachlor 2500. The source says:
(§1) Corn seeds (hybrid ‘Pioneer 3041’) were planted in mid spring season, 5 cm deep in a clay soil having 2.6% organic matter and a pH of 5.6. Plots were 8 m long by 1.5 m wide with rows spaced 80 cm apart. Seeds were spaced 15 cm apart within the rows. The field was managed using conventional tillage practices. […] Treatments consisted of Compound 2 or
(§2) Goosegrass was not evaluated 16 or 91 days after application.

Data set [1] relates to Ipomoea grandiflora (IPOGF). Nature of the data set: Test 11 field trial, preemergence. The data set is classed as in vivo.
Source text: as §1, §2

A further data set concerns corn (ZEAMD). Put plainly: Test 6 field trial, postemergence. The data set is classed as in vivo, Zea mays ssp. indentata. The following applies: 1120 g a.i./ha. From the text:
(§3) Corn seeds (hybrid ‘Pioneer 35Y62’) were planted in mid spring season, 3.8 cm deep in a silt loam soil having 4% organic matter and a pH of 5.8. Plots were 10.7 m long by 1.5 m wide with rows spaced 76 cm apart. Seeds were spaced 18 cm apart within the rows. The field was managed using conventional tillage practices. […] All treatments included a surfactant except glufosinate treatments, both alone and in combination. […] Results are summarized in Table 6 and are the means of the three replicates.

In the next data set the test system is yellow foxtail (SETLU). Nature of the data set: Test 6 field trial, postemergence. The conditions noted are these: 1120 g a.i./ha. It is filed as in vivo, Setaria glauca.
Source text: as §3

Data set [2] concerns Pennsylvania smartweed (POLPY). Nature of the data set: Test 6 field trial, postemergence. The data set is classed as in vivo, Polygonum pensylvanicum. The conditions noted are these: 1120 g a.i./ha.
Source text: as §3

The next data set has as its system giant foxtail (SETFA). Nature of the data set: Test 5 field trial, postemergence. The conditions noted are these: atrazine 1120, glufosinate 470 or glyphosate 1120 g a.i./ha alone. The data set is classed as in vivo, Setaria faberi. The source says:
Corn seeds (hybrid ‘Pioneer 38H69’) were planted in mid spring season, 5.1 cm deep in a silty clay loam soil having 3% organic matter and a pH of 6.5. Plots were 9.1 m long by 3.0 m wide with rows spaced 76 cm apart. The field was managed using conventional tillage practices. […] All treatments included a surfactant except glufosinate treatments, both alone and in combination. […] Results are summarized in Table 5 and are the means of the three replicates.

The test system of another data set is redroot pigweed (AMARE). Put plainly: Test 6 field trial, postemergence. It is filed as in vivo, Amaranthus retroflexus. The following applies: 1120 g a.i./ha.
Source text: as §3

With `Nc1nc(C2CC2)nc(C(=O)O)c1Cl` [Compound 1, 6-amino-5-chloro-2-cyclopropyl-4-pyrimidinecarboxylic acid], the “BIDPI Obs” value with common blackjack (BIDPI) (16 DAA, Cpd 2/Cpd 1 at 62 g a.i./ha) amounted to 60; in the data set with common blackjack (BIDPI) (16 DAA, Cpd 2/Cpd 1 at 125 g a.i./ha), 80; in the data set on common blackjack (BIDPI) (30 DAA, Cpd 2/Cpd 1 at 62 g a.i./ha), 60; in the data set with common blackjack (BIDPI) (30 DAA, Cpd 2/Cpd 1 at 125 g a.i./ha) it was 80; in the data set with common blackjack (BIDPI) (44 DAA, Cpd 2/Cpd 1 at 62 g a.i./ha), 40; in the data set on common blackjack (BIDPI) (44 DAA, Cpd 2/Cpd 1 at 125 g a.i./ha), 80. The “BIDPI Obs” value in the data set on common blackjack (BIDPI) (62 DAA, Cpd 2/Cpd 1 at 62 g a.i./ha) was 40; in the data set with common blackjack (BIDPI) (62 DAA, Cpd 2/Cpd 1 at 125 g a.i./ha) it was 60; with common blackjack (BIDPI) (91 DAA, Cpd 2/Cpd 1 at 62 g a.i./ha) it was 0; with common blackjack (BIDPI) (91 DAA, Cpd 2/Cpd 1 at 125 g a.i./ha), 70. In addition, the “IPOGF Obs” value is 20 in data set [1] (16 DAA, Cpd 2/Cpd 1 at 62 g a.i./ha, alone or + atrazine 1500 or metolachlor 2500); 40 in data set [1] (16 DAA, Cpd 2/Cpd 1 at 125 g a.i./ha, alone or + atrazine 1500 or metolachlor 2500); 40 in data set [1] (30 DAA, Cpd 2/Cpd 1 at 62 g a.i./ha, alone or + atrazine 1500 or metolachlor 2500); 80 in data set [1] (30 DAA, Cpd 2/Cpd 1 at 125 g a.i./ha, alone or + atrazine 1500 or metolachlor 2500); 60 in data set [1] (44 DAA, 62 g a.i./ha, scale 0 to 100); 80 in data set [1] (44 DAA, 125 g a.i./ha, scale 0 to 100). Besides, the “IPOGF Obs” value in data set [1] (62 DAA, 62 g a.i./ha, scale 0 to 100) is reported as 0; in data set [1] (62 DAA, 125 g a.i./ha, scale 0 to 100), 75; in data set [1] (91 DAA, 62 g a.i./ha, scale 0 to 100) it was 0; in data set [1] (91 DAA, 125 g a.i./ha, scale 0 to 100), 60.

`O=C(O)CNCP(=O)(O)O` [Glyphosate]: the “ZEAMD Obs” value in the data set with corn (ZEAMD) (14 DAA) and with corn (ZEAMD) (28 DAA) was 0% each time. The entries for the “SETLU Obs” value in the data set on yellow foxtail (SETLU) (14 DAA) and with yellow foxtail (SETLU) (28 DAA) were 97% and 96%, respectively. In addition, the “POLPY Obs” value in data set [2] (14 DAA) is recorded as 84%; in data set [2] (28 DAA), 91%. Moreover, the “SETFA Obs” value in the data set with giant foxtail (SETFA) (16 DAA) came out at 100%; in the data set with giant foxtail (SETFA) (31 DAA), 98%. Also, the “AMARE Obs” value in the data set on redroot pigweed (AMARE) (14 DAA) and in the data set on redroot pigweed (AMARE) (28 DAA) was 100% in each case.
